Reference: patent US20250367212A1, “PHARMACOTHERAPY FOR OBSESSIVE-COMPULSIVE DISORDER TARGETING DOPAMINE D1 SIGNAL IN STRIATAL STRIOSOMES” (priority 2022, published 2025)
Where two headings read alike, the source gives them in different places.

Assays:
[1] = system: rodent model using fear conditioning; settings: cited from earlier work
[2] = system: patients with blepharospasm; settings: for neurological or neuropsychiatric changes during the drug challenge test: in vivo
[3] = n=7 per group, 8 weeks, single drug

Compound | fear memory ([1]; administration of D1 receptor agonist, Chen et al., Brain Research 2020) | corrected VAS (mVAS), after the drug challenge test ([2]; L-DOPA group, n=7, DOPACOL 1 to 3 tablets/day over 8 weeks, before 141.3±8.7, P<0.05, severity significantly progressed) | neurological or neuropsychiatric changes during the drug challenge test [2] | change in severity of blepharospasm, BSDI, before vs after drug challenge test [2, 3] | change in severity of blepharospasm, JRS, before vs after drug challenge test [2, 3] | change in severity of blepharospasm, VAS, before vs after drug challenge test [2, 3] | fear memory ([1]; single injection of D2 receptor antagonist, Ponnusamy et al., Learning & Memory 2005) | change in severity of blepharospasm, mVAS, before vs after drug challenge test [2, 3]
Br.Cc1cccc(C2CN(C)CCc3c2cc(O)c(O)c3Cl)c1 (stereo not drawn) [SKF83959] | long-term loss of fear memory | – | – | – | – | – | – | –
N[C@@H](Cc1ccc(O)c(O)c1)C(=O)O [L-DOPA, L-3,4-dihydroxyphenylalanine] | – | 178.8±24.3 | No apparent neurological or neuropsychiatric changes | no severity progressed | no severity progressed | no severity progressed | – | –
CCN1CCCC1CNC(=O)c1cc(S(N)(=O)=O)ccc1OC (stereo not drawn) [sulpiride] | – | – | – | – | – | – | effective in erasing fear memory | –
CN(C)CCCN1c2ccccc2Sc2ccc(Cl)cc21 [CPZ, chlorpromazine] | – | – | No apparent neurological or neuropsychiatric changes | No significant changes in severity | No significant changes in severity | No significant changes in severity | – | No significant changes in severity
